Two compounds from article PMC11480532, “The rapid-reaction kinetics of an electron-bifurcating flavoprotein, the crotonyl-CoA-dependent NADH:ferredoxin oxidoreductase EtfAB:bcd” (The Journal of Biological Chemistry, 2024) can be followed below.

The target in experiment [1] is T1, EtfAB:bcd (crotonyl-CoA-dependent NADH:ferredoxin oxidoreductase), NADH site on the bifurcating FAD of EtfAB (Megasphaera elsdenii, UniProt G0VLZ5+G0VLZ6).
T1 construct: gene MELS_2127; full-length recombinant EtfAB and bcd, each with C-terminal Strep-II tag, E. coli BL21, mixed equimolar; assignment of Mels_2126 to EtfA and Mels_2127 to EtfB is inferred from the printed order; with Electron transfer flavoprotein subunit alpha; Acyl-CoA dehydrogenase, short-chain specific (butyryl-CoA dehydrogenase)
T1 sequence (G0VLZ6 1-270): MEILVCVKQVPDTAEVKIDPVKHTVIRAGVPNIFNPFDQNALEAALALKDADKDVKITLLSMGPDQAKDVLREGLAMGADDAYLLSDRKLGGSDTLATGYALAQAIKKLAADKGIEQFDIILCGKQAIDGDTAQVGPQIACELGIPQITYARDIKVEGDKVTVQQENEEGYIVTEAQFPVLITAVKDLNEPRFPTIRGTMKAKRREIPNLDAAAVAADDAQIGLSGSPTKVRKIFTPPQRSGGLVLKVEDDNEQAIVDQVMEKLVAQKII
T1 sequence (G0VLZ5 1-338): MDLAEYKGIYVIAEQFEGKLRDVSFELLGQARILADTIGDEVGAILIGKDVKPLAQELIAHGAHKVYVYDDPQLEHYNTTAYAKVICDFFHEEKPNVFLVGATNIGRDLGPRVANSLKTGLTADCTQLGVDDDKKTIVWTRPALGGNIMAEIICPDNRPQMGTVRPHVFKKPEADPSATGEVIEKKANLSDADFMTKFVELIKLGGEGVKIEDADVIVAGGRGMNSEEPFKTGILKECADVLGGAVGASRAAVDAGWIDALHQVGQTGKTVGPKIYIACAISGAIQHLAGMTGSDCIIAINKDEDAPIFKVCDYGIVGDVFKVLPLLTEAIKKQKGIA
T1 sequence (G0VLZ7 1-383 partner): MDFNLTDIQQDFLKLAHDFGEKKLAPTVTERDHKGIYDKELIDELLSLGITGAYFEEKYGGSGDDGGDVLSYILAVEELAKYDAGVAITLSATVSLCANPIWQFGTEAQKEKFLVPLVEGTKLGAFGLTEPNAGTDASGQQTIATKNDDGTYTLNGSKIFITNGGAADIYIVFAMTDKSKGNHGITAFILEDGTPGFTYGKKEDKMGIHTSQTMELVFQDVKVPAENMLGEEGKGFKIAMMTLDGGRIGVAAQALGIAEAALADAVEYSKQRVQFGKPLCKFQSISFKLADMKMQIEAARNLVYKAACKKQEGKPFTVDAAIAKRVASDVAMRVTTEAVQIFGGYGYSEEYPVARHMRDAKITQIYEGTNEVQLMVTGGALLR
The experiment in a line: stopped-flow at […] nm, hyperbolic fit of kobs of bf FAD reduction. Format: biochemical. To be noted: oxidized complex, 6.5 μM; 50 mM Tris-HCl, 150 mM NaCl, pH 7.5, 10 °C; anaerobic; no ferredoxin or crotonyl-CoA; fast phase (bf FAD); read-out: apparent Kd.

For experiment [2], the target named is T2, EtfAB:bcd (crotonyl-CoA-dependent NADH:ferredoxin oxidoreductase), crotonyl-CoA site on bcd (Megasphaera elsdenii, UniProt G0VLZ7).
T2 construct: gene MELS_2128; same complex as P1; bcd freed of persulfide-CoA adduct by dithionite; C-terminal Strep-II tags, E. coli BL21; with Electron transfer flavoprotein subunit alpha; Electron transfer flavoprotein subunit beta
T2 sequence (G0VLZ7 1-383): T1 sequence (G0VLZ7 1-383 partner)
T2 sequence (G0VLZ5 1-338 partner): T1 sequence (G0VLZ5 1-338)
T2 sequence (G0VLZ6 1-270 partner): T1 sequence (G0VLZ6 1-270)
The experiment in a line: stopped-flow reoxidation of dithionite-reduced complex; charge-transfer absorbance; oxidative titration. Format: biochemical. To be noted: fully reduced EtfAB:bcd; 50 mM Tris-HCl, 150 mM NaCl, pH 7.5, 10 °C; anaerobic; no ferredoxin.

For the compound `NC(=O)C1=CN([C@@H]2O[C@H](COP(=O)(O)OP(=O)(O)OC[C@H]3O[C@@H](n4cnc5c(N)ncnc54)[C@H](O)[C@@H]3O)[C@@H](O)[C@H]2O)C=CC1` [NADH], in experiment [1], the Kd is 43 µM.

As to `C/C=C/C(=O)SCCNC(=O)CCNC(=O)[C@H](O)C(C)(C)COP(=O)(O)OP(=O)(O)OC[C@H]1O[C@@H](n2cnc3c(N)ncnc32)[C@H](O)[C@@H]1OP(=O)(O)O` [crotonyl-CoA], the “stopped-flow reoxidation of dithionite-reduced complex; charge-transfer absorban” value in experiment [2] was “reoxidation of dithionite-reduced EtfAB:bcd6e- by crotonyl-CoA, which exhibits a [crotonyl-CoA]-independent rate constant”.
